Measurements: patent publication US9814787B2, “Luciferin amides” (University of Massachusetts, priority 2013, dated 2017)
Entries after “also recorded” stand apart in the source; their conditions may differ.

Tests used:
[1] = molecular target: T1, FAAH (Homo sapiens, UniProt O00519); assay: In vitro FAAH assay: luciferin amide treated with recombinant FAAH, then R218K luciferase, bioluminescence; assay type: biochemical; settings: 50 μM luciferin amide; for increase in bioluminescence signal on addition of FAAH versus buffer: 10 minutes at room temperature, R218K luciferase 3 μg/mL; for effect of ten-fold dilution of FAAH on bioluminescent signal: FAAH vs FAAH 1:10, one hour at room temperature
T1 construct: purchased Cayman Chemical
T1 sequence (O00519 1-579): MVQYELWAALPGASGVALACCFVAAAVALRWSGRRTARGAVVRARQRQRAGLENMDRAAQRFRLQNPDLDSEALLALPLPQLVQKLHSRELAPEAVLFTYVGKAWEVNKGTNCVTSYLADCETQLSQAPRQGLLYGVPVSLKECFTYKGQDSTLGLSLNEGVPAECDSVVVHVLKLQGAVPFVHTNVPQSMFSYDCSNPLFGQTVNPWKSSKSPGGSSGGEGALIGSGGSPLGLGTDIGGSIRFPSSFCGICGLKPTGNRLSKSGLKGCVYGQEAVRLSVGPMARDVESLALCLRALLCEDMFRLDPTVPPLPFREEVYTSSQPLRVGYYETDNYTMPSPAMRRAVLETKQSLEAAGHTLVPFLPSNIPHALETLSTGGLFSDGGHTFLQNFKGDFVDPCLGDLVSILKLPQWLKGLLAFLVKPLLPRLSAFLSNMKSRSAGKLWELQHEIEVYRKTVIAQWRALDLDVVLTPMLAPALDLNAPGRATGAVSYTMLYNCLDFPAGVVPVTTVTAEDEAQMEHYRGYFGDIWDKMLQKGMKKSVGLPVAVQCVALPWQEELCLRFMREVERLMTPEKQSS
Protocol: Recombinant FAAH, FAAH assay buffer, and FAAH inhibitors URB-597, PF-750, and PF-3845 were purchased from Cayman Chemical.
Bioluminescence assays were performed in either a Turner Veritas luminometer or a Xenogen IVIS-100 imaging system. For Veritas experiments, white 96-well plates were used (Costar 3912). For IVIS experiments, black 96-well plates were used (Costar 3915).
(§1) Luciferin amides (50 μM) were treated with FAAH and FAAH buffer (Cayman Chemical) in the presence or absence of 50 μM FAAH inhibitor URB-597 or 50 μM luciferase inhibitor 2-(4′-methoxyphenyl)benzothiazole. After 10 minutes at room temperature, R218K mutant firefly luciferase was added at a concentration of 3 μg/mL and bioluminescence was detected on a Turner Veritas luminometer.
Four luciferin amides (50 μM), i.e., Compounds 1, 9, 10, and 25, were treated with a buffer alone, a buffer containing FAAH, a buffer containing FAAH+50 μM URB-597 (i.e., a FAAH inhibitor), or a buffer containing FAAH+50 μM luciferase inhibitor 2-(4′-methoxyphenyl)benzothiazole. After 10 minutes at room temperature, R218K luciferase was added at a concentration of 3 μg/mL and bioluminescence was detected on a Turner Veritas.
(§2) Three luciferin amides (50 μM), i.e., Compounds 2, 9, and 25, were treated with a buffer alone, a buffer containing FAAH, a buffer containing FAAH 1:10 (i.e., a ten-fold dilution of FAAH), a buffer containing pig liver esterase (PLE), or a buffer containing PLE 1:10 (i.e., a ten-fold dilution of PLE). After one hour at room temperature, R218K luciferase was added at a concentration of 3 μg/mL and bioluminescence was detected on a Turner Veritas.

[2] = molecular target: R218K mutant firefly luciferase (Photinus pyralis, UniProt P08659, R218K); assay: In vitro FAAH assay in presence of luciferase inhibitor 2-(4′-methoxyphenyl)benzothiazole; assay type: biochemical; settings: 50 μM luciferase inhibitor, 50 μM luciferin amide
Protocol: as §1
Four luciferin amides (50 μM), i.e., Compounds 1, 9, 10, and 25, were treated with a buffer alone, a buffer containing FAAH, a buffer containing FAAH+50 μM URB-597 (i.e., a FAAH inhibitor), or a buffer containing FAAH+50 μM luciferase inhibitor 2-(4′-methoxyphenyl)benzothiazole. After 10 minutes at room temperature, R218K luciferase was added at a concentration of 3 μg/mL and bioluminescence was detected on a Turner Veritas. […] These bioluminescence signals were inhibited by more than 100-fold by treatment with the FAAH inhibitor URB-597.

[3] = system: pig liver esterase (PLE); assay: Treatment of luciferin amides with pig liver esterase, then R218K luciferase, bioluminescence; assay type: biochemical; settings: 50 μM luciferin amide, PLE and PLE 1:10, one hour at room temperature
Protocol: as §2

[4] = system: FVB mice expressing luciferase in brain tissue; assay: In vivo bioluminescence imaging in brains of FVB mice injected with AAV9-luc+ in the striatum
Protocol: FVB mice were injected with AAV9-luc+ in the brain striatum. Bioluminescence assays were performed approximately nine months after AAV injection. Each luciferin amide was diluted into PBS to the indicated concentration from a 50 mM DMSO stock solution and filtered (0.22 μm) prior to intraperitoneally injection (0.1 mL per mouse). Mice were anesthetized with isoflurane (2% in 1 L/min oxygen) and images acquired on a Xenogen IVIS 100 imaging system and analyzed with Living Image software.
Certain luciferin amides described herein were tested to determine whether they would image well in live mice. For these studies, FVB mice were injected with adeno-associated virus 9 (AAV9)-luciferase constructs into the brain striatum.
Bioluminescence imaging (BLI) in the brain is more challenging than imaging in the rest of the organism, in part because a luciferase substrate (i.e., a luciferin) must cross the blood-brain barrier. Therefore, the ability of a synthetic luciferin (i.e., Compound 9's corresponding luciferin (CycLuc1)) to allow bioluminescence imaging in these mice, as compared to the native firefly luciferase substrate (i.e., D-luciferin) was first tested. Specifically, each substrate was injected intraperitoneally (IP) in PBS at a volume of 0.1 mL, D-luciferin being at a concentration of 100 mM and CycLuc1 being at a concentration of 5 mM. […] CycLuc1 was then injected at a 320-fold lower dose (0.06 mL of 0.5 mM) than D-luciferin.
Specifically, Compound 9 (i.e., CycLuc1 amide) was injected at 0.5 mM in 0.5% DMSO/PBS (0.06 mL).
In this figure, mice in the top row were treated with luciferin amides in the amounts indicated in the figure, and the mice in the bottom row were the same mice that were imaged one day later using a standard dose of D-luciferin.

[5] = system: live CHO cells expressing R218K luciferase; assay: Intact cell FAAH assay, light emission from live CHO cells expressing R218K luciferase; assay type: cell-based, Chinese hamster
Protocol: (§3) Chinese hamster ovary-K1 (CHO-K1) cells were grown in a CO2 incubator at 37° C. with 5% CO2 and were cultured in F-12K Nutrient Mixture (GIBCO) supplemented with 10% fetal bovine serum and 100 U/mL penicillin/streptomycin.
(§4) Wild-type and R218K mutant luciferases were cloned into the BamHI-NotI site of pCDNA 3.1 and transiently transfected into CHO-K1 cells with Lipofectamine 2000 in 96-well tissue culture-treated plates for intact cell assays, or 6-well plates for lysed cell assays. For intact cells, 0.075 μg plasmid/well was transfected; for lysed cells, 2.25 μg plasmid/well was transfected.
[…] The cells were incubated for one hour in the CO2 incubator at 37° C. Cells were then washed with Hank's balanced salt solution (HBSS) and overlaid with 60 μL a luciferin amide substrate in HBSS. Imaging assays were performed 3 minutes after substrate addition, with final substrate concentrations ranging from 0.122 to 250 μM.
Seven luciferin amides, i.e., Compounds 1-4, 9, 10, and 25, were tested in live CHO cells expressing R218K luciferase at various concentrations (i.e., 0.12 μM, 0.25 μM, 0.5 μM, 1 μM, 2 μM, 4 μM, 8 μM, 16 μM, 31 μM, 62 μM, 125 μM, and 250 μM).
(§5) Compound 25 and Compound 10, as well as their corresponding luciferins (i.e., D-Luciferin and CycLuc2, respectively), were tested in live CHO cells expressing wild-type (WT) luciferase or R218K (RK) luciferase at various concentrations (i.e., 0.125 μM, 0.25 μM, 0.5 μM, 1 μM, 2 μM, 4 μM, 8 μM, 16 μM, 31 μM, 62 μM, 125 μM, and 250 μM).

[6] = system: live CHO cells expressing wild-type (WT) luciferase; assay: Intact cell FAAH assay, light emission from live CHO cells expressing wild-type luciferase; assay type: cell-based, Chinese hamster; settings: all concentration levels
Protocol: as §3, §4
Medium was removed from transfected CHO cells and replaced with 60 μL Optimem with or without a FAAH inhibitor (10 μM). The cells were incubated for one hour in the CO2 incubator at 37° C. Cells were then washed with Hank's balanced salt solution (HBSS) and overlaid with 60 μL a luciferin amide substrate in HBSS. Imaging assays were performed 3 minutes after substrate addition, with final substrate concentrations ranging from 0.122 to 250 μM.
as §5

[7] = 0.06 mL of 0.5 mM in 0.5% DMSO/PBS

Sequence of R218K mutant firefly luciferase (P08659 whole entry R218K): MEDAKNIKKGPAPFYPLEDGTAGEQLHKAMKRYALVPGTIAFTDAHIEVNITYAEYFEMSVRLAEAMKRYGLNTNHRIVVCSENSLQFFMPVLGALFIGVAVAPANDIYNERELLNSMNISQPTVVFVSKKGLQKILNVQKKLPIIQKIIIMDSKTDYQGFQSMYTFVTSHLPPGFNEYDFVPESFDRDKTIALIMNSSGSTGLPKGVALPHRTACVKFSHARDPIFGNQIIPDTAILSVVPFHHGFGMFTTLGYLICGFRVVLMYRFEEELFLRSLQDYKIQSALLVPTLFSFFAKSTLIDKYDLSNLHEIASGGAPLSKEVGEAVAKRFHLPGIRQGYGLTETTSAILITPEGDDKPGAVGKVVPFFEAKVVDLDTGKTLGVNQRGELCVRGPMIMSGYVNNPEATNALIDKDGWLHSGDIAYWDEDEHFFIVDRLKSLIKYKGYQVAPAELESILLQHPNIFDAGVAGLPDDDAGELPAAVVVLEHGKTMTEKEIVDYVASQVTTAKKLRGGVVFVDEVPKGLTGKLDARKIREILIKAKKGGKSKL

SMILES | increase in bioluminescence signal on addition of FAAH versus buffer [1] | effect of ten-fold dilution of FAAH on bioluminescent signal [1] | inhibition of the signal by luciferase inhibitor 2-(4′-methoxyphenyl)benzothiazole [2] | bioluminescence signal after treatment with PLE [3] | light emission relative to an equivalent dose of CycLuc1 [4, 7] | light emission relative to the 5 mM CycLuc1 dose [4, 7] | brain bioluminescence signal relative to D-luciferin (0.1 mL of 100 mM) ([4]; 0.06 mL of 0.5 mM, 320-fold lower dose) | effect of FAAH inhibitors URB-597, PF-750 and PF-3845 on light output ([5]; 50 μM FAAH inhibitor) | light emission relative to the corresponding luciferin (CycLuc2) ([5]; all concentrations tested, 0.12 to 250 μM) | light output relative to other substrate-luciferase combinations ([5]; concentrations above 30 μM) | light emission relative to other substrate-luciferase combinations ([5]; substrate concentrations below 30 μM) | light output relative to the corresponding luciferin (CycLuc2) [6] | bioluminescence signal higher than standard D-luciferin imaging conditions ([4]; doses 200-fold and 1000-fold lower than standard D-luciferin dose) | light emission in brains of live mice (qualitative) ([4]; mouse, in vivo)
NC(=O)[C@H]1CSC(c2nc3cc4c(cc3s2)NCC4)=N1 [Compound 9, (S)-4,5-dihydro-2-(6,7-dihydro-5H-thiazolo[4,5-f]indol-2-yl)thiazole-4-carboxamide] | 8972 fold | corresponding reduction in the intensity of the bioluminescent signal | 2.3 fold | failed to elicit a bioluminescence signal | exceeded that obtained from an equivalent dose of CycLuc1 itself | nearly equaling to the light emission obtained from the 5 mM CycLuc1 dose | over an order of magnitude greater | – | – | – | – | – | – | –
CN1CCc2cc3nc(C4=N[C@@H](C(N)=O)CS4)sc3cc21 [Compound 10, (S)-4,5-dihydro-2-(6,7-dihydro-5-methyl-5H-thiazolo[4,5-f]indol-2-yl)thiazole-4-carboxamide] | 139 fold | – | – | – | – | – | – | complete inhibition | greater light emission than its corresponding luciferin; also recorded: greater light output than cells treated with Compound 10's corresponding luciferin | only exceeded by cells expressing the wild-type luciferase and treated with D-luciferin | higher light emission than all other substrate-luciferase combinations | greater light output than cells treated with Compound 10's corresponding luciferin | 10 fold | –
NC(=O)[C@H]1CSC(c2nc3ccc(O)cc3s2)=N1 [Compound 25, (S)-4,5-dihydro-2-(6-hydroxybenzothiazol-2-yl)thiazole-4-carboxamide] | 269 fold | corresponding reduction in the intensity of the bioluminescent signal | 14.5 fold | failed to elicit a bioluminescence signal | – | – | – | – | – | – | – | – | – | relatively weak light emission
